Test results as given in article PMC5666424, “Marine-Derived 2-Aminoimidazolone Alkaloids. Leucettamine B-Related Polyandrocarpamines Inhibit Mammalian and Protozoan DYRK & CLK Kinases” (Marine Drugs, 2017).
Read-outs that look alike come from different tables or passages of the source.

How the values were obtained:
Test in all cases: Protein kinase assay
CDK2/cyclin A = molecular target: T1, CDK2/cyclin A (Homo sapiens, UniProt P24941); format: biochemical
T1 construct: made in house

CDK5/p25 = molecular target: T2, CDK5/p25 (Homo sapiens, UniProt Q00535); format: biochemical
T2 construct: made in house
T2 sequence (Q00535 whole entry): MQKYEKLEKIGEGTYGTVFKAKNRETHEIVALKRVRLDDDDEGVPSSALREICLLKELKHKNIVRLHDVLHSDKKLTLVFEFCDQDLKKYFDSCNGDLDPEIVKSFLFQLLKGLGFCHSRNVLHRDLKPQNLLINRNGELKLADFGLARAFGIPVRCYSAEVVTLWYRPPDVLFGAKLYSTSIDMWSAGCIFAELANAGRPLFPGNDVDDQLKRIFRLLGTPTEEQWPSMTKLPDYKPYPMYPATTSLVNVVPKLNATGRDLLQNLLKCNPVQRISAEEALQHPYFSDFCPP
T2 sequence (Q15078 99-307 partner limits assumed): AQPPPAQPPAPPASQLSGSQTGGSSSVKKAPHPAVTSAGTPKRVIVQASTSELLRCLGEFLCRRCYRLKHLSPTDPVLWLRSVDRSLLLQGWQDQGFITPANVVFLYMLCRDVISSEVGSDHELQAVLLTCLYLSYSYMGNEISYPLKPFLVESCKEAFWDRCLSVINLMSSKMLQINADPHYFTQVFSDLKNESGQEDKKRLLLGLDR

DYRK1A = DYRK1A (Homo sapiens, UniProt Q13627); format: biochemical; details: 15 μmol/L ATP
DYRK3 = molecular target: T3, DYRK3 (Homo sapiens, UniProt O43781); format: biochemical
T3 sequence (O43781 1-588): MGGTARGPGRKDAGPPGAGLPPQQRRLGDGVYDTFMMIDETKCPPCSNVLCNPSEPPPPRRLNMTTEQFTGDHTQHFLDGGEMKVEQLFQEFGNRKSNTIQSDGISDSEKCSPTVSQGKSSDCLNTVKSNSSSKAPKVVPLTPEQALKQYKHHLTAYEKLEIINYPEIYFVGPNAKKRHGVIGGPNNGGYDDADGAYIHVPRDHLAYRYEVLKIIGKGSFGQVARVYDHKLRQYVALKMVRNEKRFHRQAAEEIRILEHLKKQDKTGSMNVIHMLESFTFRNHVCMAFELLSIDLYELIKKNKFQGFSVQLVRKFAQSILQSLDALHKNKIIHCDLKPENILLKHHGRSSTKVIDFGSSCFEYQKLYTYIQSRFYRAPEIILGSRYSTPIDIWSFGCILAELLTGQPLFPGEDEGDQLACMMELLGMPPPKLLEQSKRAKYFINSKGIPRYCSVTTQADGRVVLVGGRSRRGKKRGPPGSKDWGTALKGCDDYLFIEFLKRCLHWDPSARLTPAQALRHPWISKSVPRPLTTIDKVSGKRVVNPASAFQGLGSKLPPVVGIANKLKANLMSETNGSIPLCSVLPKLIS

GSK-3α/β = format: biochemical, porcine; details: 15 μmol/L ATP
CpLAMMER = CpLAMMER (Cryptosporidium parvum, UniProt A3FQG5); format: biochemical
Method: (§1) The parasitic kinase genes (Supplementary Data, Table S3) were optimized for expression in E. coli, synthesized, and cloned in pGEX-6P-1 (GE Healthcare, Sigma-Aldrich, St. Quentin Fallavier, France) with the type II restriction enzymes BamHI and XhoI for glutathione S-transferase (GST) fusion at the N-terminus (GenScript). Plasmids were transformed into chemically competent E. coli BL21(DE3), which were grown overnight at 37 °C in 2 × YT medium containing 100 μg/mL ampicillin. These cultures were used to inoculate 1 L volumes of 2 × YT medium (containing 100 μg/mL ampicillin) in 5 L flasks. The cultures were allowed to grow at 37 °C before the temperature was decreased to 18 °C. At an optical density at 600 nm (OD600) of about 1.0, protein expression was induced overnight at 18 °C with 0.1 mM isopropyl β-D-1-thiogalactopyranoside (IPTG). The bacteria were harvested by centrifugation and were frozen at −20 °C.
(§2) Cells were resuspended in a lysis buffer (PBS pH 7.4, 1% NP40, 1 mM DTT, 1 mM EDTA, 1 mM PMSF) in the presence of protease inhibitor cocktail (Roche), and lysozyme was added to 1 mg/mL and incubated 1 h at 4 °C with gentle agitation. Cells were then sonicated on ice before 6 mM MgCl2 and 25 U/mL benzonase (Novagen, Merck Millipore, Fontenay sous Bois, France) were added to degrade nucleic acids and decrease sample viscosity. After centrifugation at 4 °C, the soluble fraction was collected and proteins were bound to Glutathione sepharose 4B beads (GE Healthcare). Beads were washed three times with lysis buffer and once with modified buffer C (25 mM MOPS pH 7.0, 60 mM β-glycerophosphate, 15 mM p-nitrophenylphosphate, 15 mM EGTA, 15 mM MgCl2, 2 mM DTT, 1 mM sodium vanadate). Proteins were eluted with elution buffer (buffer C containing 30 mM reduced glutathione, 15% glycerol, and pH adjusted to 8.5).

GlCLK = GlCLK (Giardia intestinalis, UniProt A8BBY0); format: biochemical
GlCLK, sequence (A8BBY0 entry or part of it): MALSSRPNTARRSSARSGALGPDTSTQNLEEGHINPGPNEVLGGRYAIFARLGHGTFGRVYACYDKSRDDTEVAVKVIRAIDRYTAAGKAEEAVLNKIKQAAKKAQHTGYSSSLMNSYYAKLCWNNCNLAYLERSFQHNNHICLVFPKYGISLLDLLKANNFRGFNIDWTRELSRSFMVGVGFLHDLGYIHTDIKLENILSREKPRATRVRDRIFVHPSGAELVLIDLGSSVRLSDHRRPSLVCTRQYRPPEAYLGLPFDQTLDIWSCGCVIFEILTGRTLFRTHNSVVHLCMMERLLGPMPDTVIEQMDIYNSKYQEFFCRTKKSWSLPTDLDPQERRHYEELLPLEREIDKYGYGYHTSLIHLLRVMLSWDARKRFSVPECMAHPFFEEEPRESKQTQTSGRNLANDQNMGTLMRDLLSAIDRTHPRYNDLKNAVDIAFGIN
Method: as §1, §2

LdDYRK1B = LdDYRK1B (Leishmania donovani, UniProt E9BC59); format: biochemical; details: 15 μmol/L ATP
LdDYRK1B, sequence (E9BC59 1-745): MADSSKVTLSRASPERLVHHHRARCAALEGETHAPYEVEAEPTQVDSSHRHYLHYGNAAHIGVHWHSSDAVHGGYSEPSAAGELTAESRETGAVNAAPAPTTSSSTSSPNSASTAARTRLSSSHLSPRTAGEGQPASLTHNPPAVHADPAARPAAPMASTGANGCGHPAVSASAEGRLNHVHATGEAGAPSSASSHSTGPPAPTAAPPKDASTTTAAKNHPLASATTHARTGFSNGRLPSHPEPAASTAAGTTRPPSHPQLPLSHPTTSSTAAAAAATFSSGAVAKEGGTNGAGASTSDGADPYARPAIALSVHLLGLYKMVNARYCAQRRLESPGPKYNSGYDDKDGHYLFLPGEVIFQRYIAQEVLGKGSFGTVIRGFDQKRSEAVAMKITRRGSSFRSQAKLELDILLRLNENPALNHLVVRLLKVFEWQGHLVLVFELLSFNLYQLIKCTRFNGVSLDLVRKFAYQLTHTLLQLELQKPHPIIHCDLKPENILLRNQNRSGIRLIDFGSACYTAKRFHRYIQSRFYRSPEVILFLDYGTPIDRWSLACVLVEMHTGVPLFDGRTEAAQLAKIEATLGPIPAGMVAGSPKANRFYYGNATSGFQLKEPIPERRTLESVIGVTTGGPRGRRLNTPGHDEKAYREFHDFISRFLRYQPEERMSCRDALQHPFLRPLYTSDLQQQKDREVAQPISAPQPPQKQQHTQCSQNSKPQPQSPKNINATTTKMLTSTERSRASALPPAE
Method: as §1, §2

LdDYRK3 = LdDYRK3 (Leishmania donovani, UniProt E9BS59); format: biochemical
Method: as §1, §2

LdDYRK4 = LdDYRK4 (Leishmania donovani, UniProt A0A3Q8IC55); format: biochemical
Method: as §1, §2

LmCLK = LmCLK (Leishmania major, UniProt Q4QHY4); format: biochemical
LmCLK, sequence (Q4QHY4 entry or part of it): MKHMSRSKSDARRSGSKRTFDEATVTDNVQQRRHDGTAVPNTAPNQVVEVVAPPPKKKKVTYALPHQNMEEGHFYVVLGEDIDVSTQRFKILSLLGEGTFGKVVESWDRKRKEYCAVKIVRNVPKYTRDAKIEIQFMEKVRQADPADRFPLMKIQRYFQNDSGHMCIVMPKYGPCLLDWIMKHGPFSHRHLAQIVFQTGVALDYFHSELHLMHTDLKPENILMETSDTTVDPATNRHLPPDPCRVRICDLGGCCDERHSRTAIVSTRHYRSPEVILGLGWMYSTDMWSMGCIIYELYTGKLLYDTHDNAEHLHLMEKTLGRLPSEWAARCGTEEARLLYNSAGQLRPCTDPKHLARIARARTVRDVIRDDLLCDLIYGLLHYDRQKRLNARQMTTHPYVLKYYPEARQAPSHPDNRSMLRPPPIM
Method: as §1, §2

LmDYRK2 = LmDYRK2 (Leishmania major, UniProt Q4Q405); format: biochemical
LmDYRK2, sequence (Q4Q405 entry or part of it): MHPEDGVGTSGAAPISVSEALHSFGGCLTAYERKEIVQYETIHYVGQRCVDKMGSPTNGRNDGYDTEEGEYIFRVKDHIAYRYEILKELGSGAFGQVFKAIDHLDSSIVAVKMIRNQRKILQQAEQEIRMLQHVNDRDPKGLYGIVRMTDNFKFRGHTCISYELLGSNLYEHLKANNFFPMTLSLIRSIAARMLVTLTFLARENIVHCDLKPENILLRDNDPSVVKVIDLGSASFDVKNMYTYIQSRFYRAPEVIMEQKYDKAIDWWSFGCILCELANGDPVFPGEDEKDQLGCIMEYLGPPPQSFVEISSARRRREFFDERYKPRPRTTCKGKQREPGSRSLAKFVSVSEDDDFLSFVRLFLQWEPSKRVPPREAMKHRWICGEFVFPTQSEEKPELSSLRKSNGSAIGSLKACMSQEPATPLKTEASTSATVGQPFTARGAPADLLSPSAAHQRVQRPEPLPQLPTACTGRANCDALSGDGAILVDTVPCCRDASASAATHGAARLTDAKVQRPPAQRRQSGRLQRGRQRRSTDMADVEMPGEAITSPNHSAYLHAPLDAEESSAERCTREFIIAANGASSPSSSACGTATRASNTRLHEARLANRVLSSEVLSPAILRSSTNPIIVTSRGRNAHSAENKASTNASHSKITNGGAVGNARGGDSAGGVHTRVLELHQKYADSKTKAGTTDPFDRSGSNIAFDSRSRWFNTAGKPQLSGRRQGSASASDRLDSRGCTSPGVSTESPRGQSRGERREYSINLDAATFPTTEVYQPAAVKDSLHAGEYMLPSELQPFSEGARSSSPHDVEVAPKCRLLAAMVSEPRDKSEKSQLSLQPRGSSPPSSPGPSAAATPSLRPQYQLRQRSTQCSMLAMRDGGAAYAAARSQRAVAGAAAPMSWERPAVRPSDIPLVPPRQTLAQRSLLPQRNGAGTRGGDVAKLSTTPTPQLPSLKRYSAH
Method: as §1, §2

PfCLK1 = PfCLK1 (Plasmodium falciparum, UniProt Q8IL19); format: biochemical
PfCLK1, sequence (Q8IL19 entry or part of it): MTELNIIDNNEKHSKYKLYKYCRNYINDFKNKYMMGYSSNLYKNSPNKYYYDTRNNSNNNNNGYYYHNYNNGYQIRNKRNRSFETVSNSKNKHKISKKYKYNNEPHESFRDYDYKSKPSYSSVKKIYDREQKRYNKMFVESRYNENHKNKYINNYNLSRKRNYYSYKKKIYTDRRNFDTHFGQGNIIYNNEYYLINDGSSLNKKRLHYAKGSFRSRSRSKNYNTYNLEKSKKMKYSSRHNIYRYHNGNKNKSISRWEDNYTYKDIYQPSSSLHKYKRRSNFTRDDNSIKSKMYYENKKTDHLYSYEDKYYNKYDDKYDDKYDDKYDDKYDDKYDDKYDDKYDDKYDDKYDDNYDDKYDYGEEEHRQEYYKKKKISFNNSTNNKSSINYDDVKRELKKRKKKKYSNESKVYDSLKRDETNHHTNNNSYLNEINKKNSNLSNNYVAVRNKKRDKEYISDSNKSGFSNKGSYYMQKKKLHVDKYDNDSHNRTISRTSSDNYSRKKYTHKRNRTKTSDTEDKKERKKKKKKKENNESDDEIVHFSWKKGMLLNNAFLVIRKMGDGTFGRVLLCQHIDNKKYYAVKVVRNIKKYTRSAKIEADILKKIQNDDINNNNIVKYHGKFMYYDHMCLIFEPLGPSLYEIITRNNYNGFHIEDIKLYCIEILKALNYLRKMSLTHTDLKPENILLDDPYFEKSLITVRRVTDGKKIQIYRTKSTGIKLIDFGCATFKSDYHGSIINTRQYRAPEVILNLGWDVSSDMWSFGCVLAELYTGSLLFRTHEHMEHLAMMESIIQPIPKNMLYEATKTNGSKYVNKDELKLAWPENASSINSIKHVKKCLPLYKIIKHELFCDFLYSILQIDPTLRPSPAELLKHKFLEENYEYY
Method: as §1, §2

PfGSK-3 = molecular target: T4, PfGSK-3 (Plasmodium falciparum, UniProt O77344); format: biochemical
T4 sequence (O77344 1-440): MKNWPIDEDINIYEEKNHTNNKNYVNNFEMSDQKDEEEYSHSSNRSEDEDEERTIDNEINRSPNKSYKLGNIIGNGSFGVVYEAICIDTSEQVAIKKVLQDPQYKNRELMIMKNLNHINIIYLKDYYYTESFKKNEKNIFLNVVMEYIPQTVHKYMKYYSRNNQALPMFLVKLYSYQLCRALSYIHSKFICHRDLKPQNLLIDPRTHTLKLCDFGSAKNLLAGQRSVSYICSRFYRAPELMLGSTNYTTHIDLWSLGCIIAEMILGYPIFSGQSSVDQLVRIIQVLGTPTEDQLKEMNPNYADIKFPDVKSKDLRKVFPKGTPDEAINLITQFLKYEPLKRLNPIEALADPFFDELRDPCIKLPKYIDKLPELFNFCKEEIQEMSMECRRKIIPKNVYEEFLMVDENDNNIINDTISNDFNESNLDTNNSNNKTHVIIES
Method: as §1, §2

TbCLK1 = TbCLK1 (Trypanosoma brucei brucei, UniProt Q382U0); format: biochemical
TbCLK1, sequence (Q382U0 entry or part of it): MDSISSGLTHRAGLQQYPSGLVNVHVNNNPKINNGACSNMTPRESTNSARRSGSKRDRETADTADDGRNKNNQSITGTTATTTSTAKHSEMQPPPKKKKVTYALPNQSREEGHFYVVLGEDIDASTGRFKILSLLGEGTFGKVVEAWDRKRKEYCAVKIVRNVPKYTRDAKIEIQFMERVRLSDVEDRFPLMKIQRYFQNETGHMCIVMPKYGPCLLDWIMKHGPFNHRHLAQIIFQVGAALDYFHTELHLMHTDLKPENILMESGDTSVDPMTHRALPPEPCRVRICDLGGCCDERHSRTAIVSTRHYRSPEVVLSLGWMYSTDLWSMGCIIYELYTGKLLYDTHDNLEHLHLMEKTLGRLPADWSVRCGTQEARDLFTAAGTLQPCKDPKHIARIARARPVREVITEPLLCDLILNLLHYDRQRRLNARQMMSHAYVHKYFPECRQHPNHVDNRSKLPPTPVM
Method: as §1, §2

TcCLK1 = TcCLK1 (Trypanosoma cruzi, UniProt Q4E3Z1); format: biochemical
TcCLK1, sequence (Q4E3Z1 entry or part of it): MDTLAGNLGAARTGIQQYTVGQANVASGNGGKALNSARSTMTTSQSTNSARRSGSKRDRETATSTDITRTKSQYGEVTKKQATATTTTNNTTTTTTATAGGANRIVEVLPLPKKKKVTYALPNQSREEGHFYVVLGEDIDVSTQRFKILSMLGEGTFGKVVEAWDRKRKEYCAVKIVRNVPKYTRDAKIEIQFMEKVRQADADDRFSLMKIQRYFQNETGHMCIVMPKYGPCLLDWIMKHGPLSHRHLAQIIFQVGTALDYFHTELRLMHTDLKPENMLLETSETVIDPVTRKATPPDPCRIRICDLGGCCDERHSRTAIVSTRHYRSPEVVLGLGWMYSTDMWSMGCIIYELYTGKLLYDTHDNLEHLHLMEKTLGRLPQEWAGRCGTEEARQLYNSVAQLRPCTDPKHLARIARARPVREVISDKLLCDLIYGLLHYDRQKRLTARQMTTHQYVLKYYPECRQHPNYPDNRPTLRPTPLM
Method: as §1, §2

LmCK1 = LmCK1 (Leishmania major, UniProt Q9NHE1); format: biochemical
Method: CK1δ/ε (porcine brain, native) and LmCK1 (leishmania major, recombinant, expressed in E. coli as HIS fusion proteins) was assayed as described for CDK1 but in buffer C and using 25 μM CKS peptide ([…]pSAYSITA), a CK1-specific substrate.

[1] = 15 μmol/L ATP, read-out: IC50 CDK2/cyclin A
[2] = 15 μmol/L ATP, read-out: IC50 CDK5/p25
[3] = 15 μmol/L ATP, read-out: IC50 DYRK3
[4] = 15 μmol/L ATP, read-out: IC50 CpLAMMER
[5] = 15 μmol/L ATP, read-out: IC50 GlCLK
[6] = 15 μmol/L ATP, read-out: IC50 LdDYRK3
[7] = 15 μmol/L ATP, read-out: IC50 LdDYRK4
[8] = 15 μmol/L ATP, read-out: IC50 LmCLK
[9] = 15 μmol/L ATP, read-out: IC50 LmDYRK2
[10] = 15 μmol/L ATP, read-out: IC50 PfCLK1
[11] = 15 μmol/L ATP, read-out: IC50 PfGSK-3
[12] = 15 μmol/L ATP, read-out: IC50 TbCLK1
[13] = 15 μmol/L ATP, read-out: IC50 TcCLK1
[14] = 15 μmol/L ATP, read-out: IC50 LmCK1

| Compound | IC50 (CDK2/cyclin A; [1]) | IC50 (CDK5/p25; [2]) | IC50 (DYRK1A) | IC50 (DYRK3; [3]) | IC50 (GSK-3α/β) | IC50 (CpLAMMER; [4]) | IC50 (GlCLK; [5]) | IC50 (LdDYRK1B) | IC50 (LdDYRK3; [6]) | IC50 (LdDYRK4; [7]) | IC50 (LmCLK; [8]) | IC50 (LmDYRK2; [9]) | IC50 (PfCLK1; [10]) | IC50 (PfGSK-3; [11]) | IC50 (TbCLK1; [12]) | IC50 (TcCLK1; [13]) | IC50 (LmCK1; [14]) | other results |
| --- | --- | --- | --- | --- | --- | --- | --- | --- | --- | --- | --- | --- | --- | --- | --- | --- | --- | --- |
| CN1C(=N)N=C(Nc2nc(Cc3ccc4c(c3)OCO4)cn2C)C1=O [Clathridimine] | > 10 µM | > 10 µM | 5.2 µM | 6.1 µM | > 10 µM | > 10 µM | > 10 µM | > 10 µM | 7.9 µM | > 10 µM | > 10 µM | > 10 µM | > 10 µM | > 10 µM | > 10 µM | > 10 µM | > 10 µM | – |
| CN1C(=O)N=C(Nc2nc(Cc3ccc4c(c3)OCO4)cn2C)C1=O [Clathridine] | > 10 µM | > 10 µM | 7.8 µM | > 10 µM | > 10 µM | > 10 µM | > 10 µM | > 10 µM | > 10 µM | > 10 µM | > 10 µM | > 10 µM | > 10 µM | > 10 µM | > 10 µM | > 10 µM | > 10 µM | – |
| NC1=N/C(=C\CCNC(=O)c2cc(Br)c(Br)[nH]2)C(=O)N1 [Dispacamide] | > 10 µM | > 10 µM | > 10 µM | > 10 µM | > 10 µM | > 10 µM | > 10 µM | > 10 µM | > 10 µM | > 10 µM | > 10 µM | > 10 µM | > 10 µM | > 10 µM | > 10 µM | > 10 µM | > 10 µM | – |
| CN1C(=O)/C(=C/c2ccc3c(c2)OCO3)N=C1N [Leucettamine B] | – | – | – | – | 7.3 µM | – | – | 6.9 µM | – | – | – | – | – | – | – | – | – | IC50 (CDK2/cyclin A): > 10 µM; IC50 (DYRK3; IC50 DYRK3, 15 μmol/L ATP): 0.6 µM; IC50 (CpLAMMER): 1.8 µM; IC50 (GlCLK): 3.1 µM; IC50 (LdDYRK3): > 10 µM; IC50 (LdDYRK4): > 10 µM; IC50 (LmCLK): > 10 µM; IC50 (LmDYRK2): 4.2 µM; IC50 (PfCLK1): 0.79 µM; IC50 (PfGSK-3): > 10 µM; IC50 (TbCLK1): > 10 µM; IC50 (TcCLK1): > 10 µM; IC50 (LmCK1): > 10 µM |
| COc1cc(/C=C2\N=C(N)NC2=O)ccc1O [Polyandrocarpamine A] | > 10 µM | > 10 µM | 0.27 µM | 0.17 µM | – | 0.17 µM | 0.95 µM | 1.1 µM | > 10 µM | > 10 µM | > 10 µM | 5.9 µM | 0.65 µM | > 10 µM | > 10 µM | > 10 µM | > 10 µM | – |
| NC1=N/C(=C\c2ccc(O)c(O)c2)C(=O)N1 [Polyandrocarpamine B] | > 10 µM | > 10 µM | 0.47 µM | 0.88 µM | > 10 µM | 0.2 µM | 2.2 µM | > 10 µM | > 10 µM | > 10 µM | > 10 µM | > 10 µM | 3.1 µM | > 10 µM | > 10 µM | > 10 µM | > 10 µM | – |

More lines, main results first:

| IC50 (CDK2/cyclin A; [1]) | IC50 (CDK5/p25; [2]) | IC50 (DYRK1A) | IC50 (DYRK3; [3]) | IC50 (GSK-3α/β) | IC50 (CpLAMMER; [4]) | IC50 (GlCLK; [5]) | IC50 (LdDYRK1B) | IC50 (LdDYRK3; [6]) | IC50 (LdDYRK4; [7]) | IC50 (LmCLK; [8]) | IC50 (LmDYRK2; [9]) | IC50 (PfCLK1; [10]) | IC50 (PfGSK-3; [11]) | IC50 (TbCLK1; [12]) | IC50 (TcCLK1; [13]) | IC50 (LmCK1; [14]) | Compound | other results |
| --- | --- | --- | --- | --- | --- | --- | --- | --- | --- | --- | --- | --- | --- | --- | --- | --- | --- | --- |
| > 10 µM | > 10 µM | > 10 µM | > 10 µM | > 10 µM | > 10 µM | > 10 µM | > 10 µM | > 10 µM | > 10 µM | > 10 µM | > 10 µM | > 10 µM | > 10 µM | > 10 µM | > 10 µM | > 10 µM | CN1C(=N)N(C)/C(=C\c2c[nH]c3ccccc23)C1=O [Aplysinopsine] | – |
| 0.011 µM | – | 0.0033 µM | 0.0049 µM | 0.0032 µM | 0.016 µM | 0.012 µM | 0.042 µM | 0.021 µM | > 10 µM | 0.4 µM | 0.38 µM | 0.011 µM | 0.0041 µM | 0.53 µM | 0.51 µM | 0.0025 µM | NC1=NC(=O)/C(=C2\CCNC(=O)c3[nH]c(Br)cc32)N1 [Hymenialdisine, reference compound] | IC50 (CDK5/p25): 0.0061 µM |
| 0.068 µM | 0.042 µM | 0.78 µM | 0.044 µM | 0.044 µM | 0.13 µM | 0.12 µM | 0.5 µM | 0.3 µM | > 10 µM | 5.2 µM | 9 µM | 0.085 µM | 0.038 µM | 0.71 µM | 1.1 µM | 0.025 µM | NC1=NC(=O)/C(=C2\CCNC(=O)c3[nH]cc(Br)c32)N1 [Spongiacidin B] | – |
